US11738072B2, “Tumor vaccine and uses thereof” (WestVac Biopharma Co., Ltd., priority 2017, dated 2023)

How the values were obtained:
[1] = tested on: CT26 cells; assay: CT26 cell death test by PI-AnnexinV (fluorescence microscope); type: cell-based, mouse; conditions: CT26, 24 h
Source text: (1) Experimental method: same as 1.

[2] = tested on: lysosomes in A549 cells; assay: Lysosomal acidity gradient by Lysotracker Red / YOYO1 probes; type: cell-based; conditions: flow cytometry, 1 h, 3 h, 6 h and 9 h
Description: a. Preparation of YOYO1 working fluid: the YOYO1 stock solution was diluted with 1640 serum-free medium at the volume ratio of 1:200;
b. The pMVA-1 plasmid was added to the YOYO1 working fluid prepared in the Step (1) according to a volume ratio of 1:40, and incubated at 37° C. for 1 h.
a. The YOYO1 fluorescent labeled pMVA-1 plasmid prepared in Step 1 was mixed with the DOTAP cationic lipid to form a complex;
b. The YOYO1 fluorescently labeled pMVA-1/DOTAP complex prepared in Step a was added to A549 cells, followed by making two control groups i.e. YOYO1 fluorescently labeled pMVA-1 plasmid group (PMVA) and DOTAP cationic lipid group (DOTAP), and blank control group containing cell culture fluid only.
(1) Preparation of Lysotracher Red working fluid: the Lysotracher Red stock solution was added to the cell culture fluid at a volume ratio of 1:20000 and incubated at 37° C.
a. The A549 cell culture fluid in Step 1 was removed, the Lysotracker Red staining working fluid prepared in Step (1) was added to the cells, and incubated at 37° C. for 1 h; […]
c. A549 cells in Step b were collected and the number of fluorescent cells were quantitatively tested by flow cytometry.

[3] = tested on: lysosomes of A549 cells; assay: Lysosomal membrane permeability by FITC-Dextran cell localization; type: cell-based; conditions: 3 h, confocal microscope; dispersed = increased LMP
Description: (1) Inoculation of A549 cells in plates: A549 cells in the logarithmic growth phase were prepared into a cell suspension, inoculated into a 6-well plate as per approximately 1×10^5 cells/well. Then, 2 ml of medium was added to each well, and cultured overnight in a 5% CO2 incubator at 37° C.
(2) FITC-Dextran (made by Sigma) with a final concentration of 1 mg/ml was added to the cell medium in Step (1), and incubated at 37° C. for 4 h in the dark.
(3) The cells in Step (2) were washed twice with sterile PBS, 1640 medium was added, thus allowing A549 cells to be treated with the medium (blank control group), pMVA-1 plasmid (control group PMVA), DOTAP cationic lipid (control group DOTAP) and pMVA-1/DOTAP complex (experimental group PMVA-DOTAP) respectively, and incubated at 37° C. for 3 h in the dark.
(4) The cells in Step (3) were washed twice with PBS, stabilized with 4% paraformaldehyde for 10 min, washed twice with PBS, sealed. Fluorecytes were observed under a confocal microscope and the images were saved.

[4] = tested on: CT26 cells; assay: Mitochondrial membrane potential by TMRM, flow cytometry; type: cell-based, mouse; conditions: CT26, 15-24 h
Description: (§1) (1) Inoculation of tumor cells in plates: A549 cells and CT26 cells in the logarithmic growth phase were prepared into a cell suspension respectively, inoculated into a 6-well plate as per 1×10^5 cells/well, 2 ml of medium was added to each well, and cultured overnight in a 5% CO2 incubator at 37° C.
(§2) (2) Different samples added to act on tumor cells: the pMVA-1 plasmid, the DOTAP cationic lipid and the pMVA-1/DOTAP complex were added to the tumor cells cultured in Step (1) respectively, and incubated at 37° C. for 15 h, 18 h, 21 h and 24 h.
(§3) (3) Preparation of TMRM dyeing working fluid (made by Life Technologies): the TMRM mother liquor was diluted with PBS at a ratio of 1:100000 to obtain the TMRM dyeing working fluid. […]
(§4) (5) The tumor cells in Step (4) were collected and treated with different samples for different times, and the tumor cells with mitochondrial membrane potential changes were analyzed by flow cytometry.
(§5) As a potentiometric fluorescence probe, tetramethylrhodamine methyl ester (TMRM) entered the cells and was cleaved by cell lactonase to produce tetramethylrhodamine, indicating strong fluorescence after they had entered mitochondria. […] Therefore, the open state of mitochondrial membrane channel pores can be verified by testing the changes of fluorescence intensity in mitochondria of tumor cells.

[5] = tested on: A549 cells; assay: as above; type: cell-based; conditions: A549, 15-24 h
Description: as §1, §2, §3, §4, §5

[6] = tested on: bone marrow-derived dendritic cells (BMDC); assay: FITC-Dextran uptake by BMDC, flow cytometry; type: cell-based, mouse; conditions: BMDC stimulated 24 h by CT26 cells treated with sample
Description: a. Bone marrow cells were obtained from the femur and tibia of mouse, sieved and collected in a centrifuge tube, centrifuged at 280 g and at room temperature for 5 min, and the supernatant was discarded.
b. 10 ml of red cell lysate was added to the cells described in Step a, standing for 3 min at room temperature, centrifuged at 280 g and at room temperature for 5 min, and the supernatant was discarded.
c. The bone marrow cells described in Step b were washed twice with PRMI-1640 medium, centrifuged at 280 g and at room temperature for 10 min, live cell count was carried out, the cell concentration was adjusted to 1×10^6 cells/ml by RPMI-1640 complete medium.
d. In Step c, the recombinant mouse GM-CS with a final concentration of 10 ng/ml was added and 4 ml/well cell suspension was inoculated into a 6-well plate, and cultured in a 37° C., 5% CO2 incubator. When cell colonies grew on the bottom of the plate, the medium was pipetted, washed once with the medium, and 1640 complete medium containing 10 ng/ml of GM-CSF was added to each well.
e. […]
d. Test and analysis of fluorescence intensity of BMDC based on flow cytometry.

For `CCCCCCCC/C=C\CCCCCCCC(=O)OCC(C[N+](C)(C)C)OC(=O)CCCCCCC/C=C\CCCCCCCC` (stereo not drawn) [DOTAP, 1,2-dioleoyl-3-trimethylammonium-propane], the “PI-positive and AnnexinV-positive cells” value [1] was “did not indicate obvious PI uptake and obvious AnnexinV-labeled positive cells”, the “Lysotracker Red fluorescence intensity” value [2] was “did not change significantly” and the “distribution of FITC-Dextran in cytoplasm of A549 cells” value [3] was “distributed in dots”. For the same molecule, the mitochondrial membrane potential [4] was “did not change significantly”, the mitochondrial membrane potential [5] was “did not change significantly” and the “FITC average fluorescence intensity of CD11c positive DC” value [6] was “decreased significantly”.
